Test systems include OVCAR-3; UACC-257; NCI/ADR-RES; HOP-92; NCI-H522; SK-MEL-5; DU-145; A498; COLO 205; HL-60; HCT-116; MDA-MB-435; OVCAR-4; OVCAR-5; SF-539; K562; EKVX; NCI-H226; A549; HOP-62.
Common to all, as to assay: inhibition of tumour cell growth, NCI panel, 48 h

Data on eleven compounds can be found in ChEMBL document CHEMBL1201862, “PubChem BioAssay data set” (2004).

SMILES strings stand for the structures.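 Test compounds were applied to cells in 96-well plates for 48 hours at 5 doses. Here, GI50 denotes the concentration required for 50% inhibition of growth.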 Activity calls are given as the source filed them. Cut-off read from the data, not from the text of the source: active = GI50 up to about 1.1 µM and inactive = higher.

As for `Clc1ccc(C2ON=C(c3ccccc3)N2C23CC4CC(CC(C4)C2)C3)cc1` (centres undefined), the GI50 in the experiment on OVCAR-3, in the experiment with UACC-257, in the experiment on NCI/ADR-RES, in the experiment on HOP-92, with NCI-H522 and in the experiment with SK-MEL-5 was > 10 µM (inactive) in each case. For the same compound, the GI50 in the experiment with DU-145, in the experiment on A498, with COLO 205, in the experiment with HL-60, in the experiment on HCT-116 and with MDA-MB-435 was > 10 µM (inactive) each time. Moreover, the GI50 with OVCAR-4, in the experiment on OVCAR-5, in the experiment with SF-539, in the experiment with K562, with EKVX and in the experiment on NCI-H226 was > 10 µM (inactive) each time. Moreover, the GI50 in the experiment with A549 and in the experiment on HOP-62 was > 10 µM (inactive) in each case.
Consider `N#CCCN(CCNc1ccccc1)C(=O)Nc1ccc(NC(=O)N(CCC#N)CCNc2ccccc2)cc1`, for which the GI50 in the experiment with OVCAR-3 was > 92.9 µM (inactive); with UACC-257, > 100 µM (inactive); in the experiment with NCI/ADR-RES, > 63.8 µM (inactive); with HOP-92, > 45.9 µM (inactive); with NCI-H522, 21.1 µM (inactive); with SK-MEL-5, > 100 µM (inactive). Moreover, the GI50 in the experiment with DU-145 was > 92.9 µM (inactive); in the experiment on A498 it was > 100 µM (inactive); with COLO 205, > 100 µM (inactive); in the experiment on HCT-116 it was > 100 µM (inactive); with MDA-MB-435, > 100 µM (inactive); with OVCAR-4, 24.7 µM (inactive). Further, the GI50 is > 100 µM (inactive) in the experiment with OVCAR-5; > 100 µM (inactive) in the experiment with SF-539; > 100 µM (inactive) in the experiment on K562; > 100 µM (inactive) in the experiment with EKVX; > 73.5 µM (inactive) in the experiment with NCI-H226; > 100 µM (inactive) in the experiment on A549. In addition, in the experiment on HOP-62, the GI50 is > 47 µM (inactive).
Take `CC[N+](CC)(CC)/C(=N\S(=O)(=O)c1ccc(Cl)cc1)[N-]S(=O)(=O)c1cc(C)c(Cl)cc1S`: the GI50 in the experiment with OVCAR-3 is 83 µM (inactive); in the experiment on UACC-257, > 100 µM (inactive); in the experiment with NCI/ADR-RES, > 100 µM (inactive); in the experiment with HOP-92, 24.9 µM (inactive); in the experiment with NCI-H522, 60.5 µM (inactive); with SK-MEL-5, > 100 µM (inactive). Besides, the GI50 was 97.3 µM (inactive) with DU-145; 41.9 µM (inactive) in the experiment with A498; 53.8 µM (inactive) in the experiment with HL-60; 26.5 µM (inactive) with HCT-116; > 100 µM (inactive) with MDA-MB-435; 65.5 µM (inactive) in the experiment with OVCAR-4. Further, the GI50 in the experiment with OVCAR-5 was 58.2 µM (inactive); in the experiment on SF-539, 57.3 µM (inactive); with K562 it was 6.65 µM (inactive); with EKVX it was > 100 µM (inactive); in the experiment with NCI-H226, 32.1 µM (inactive); with HOP-62, 52 µM (inactive).
As for `COc1ccc2c(c1)/C(=C\c1c(Cl)[nH]c3ccccc13)C(=O)N2`, the GI50 was 6 µM (inactive) with OVCAR-3; 6.14 µM (inactive) with UACC-257; 2.81 µM (inactive) with NCI/ADR-RES; 1.84 µM (inactive) in the experiment on HOP-92; 3.05 µM (inactive) in the experiment with NCI-H522; 3.6 µM (inactive) in the experiment with SK-MEL-5. Further, the GI50 is 19.3 µM (inactive) in the experiment with DU-145; 8 µM (inactive) in the experiment on A498; 2.27 µM (inactive) with COLO 205; 3.18 µM (inactive) with HL-60; 2.57 µM (inactive) with HCT-116; 1.91 µM (inactive) in the experiment on MDA-MB-435. Besides, the GI50 with OVCAR-5 was 10.9 µM (inactive); in the experiment on SF-539 it was 3.61 µM (inactive); in the experiment on K562, 3.62 µM (inactive); in the experiment on EKVX it was 3.3 µM (inactive); with NCI-H226 it was 16.2 µM (inactive); in the experiment with A549 it was 4.99 µM (inactive). Besides, the GI50 with HOP-62 is 5.75 µM (inactive).
With `COc1cccc(-c2cc(O)c3cccnc3n2)c1`, the GI50 was 0.0571 µM (active) in the experiment with OVCAR-3; > 100 µM (inactive) with UACC-257; 0.0617 µM (active) with NCI/ADR-RES; 0.0776 µM (active) in the experiment on HOP-92; 0.0698 µM (active) in the experiment on NCI-H522; 0.0546 µM (active) in the experiment with SK-MEL-5. In addition, the GI50 in the experiment with DU-145 was 0.556 µM (active); with A498, 0.516 µM (active); in the experiment on COLO 205, 0.0771 µM (active); with HL-60, 0.0261 µM (active); with HCT-116, 0.0546 µM (active); in the experiment with MDA-MB-435 it was 0.0164 µM (active). Also, the GI50 is > 40.5 µM (inactive) with OVCAR-4; 0.102 µM (active) in the experiment on SF-539; 0.0339 µM (active) in the experiment on K562; 0.325 µM (active) in the experiment with NCI-H226; 0.102 µM (active) with A549; 0.104 µM (active) in the experiment with HOP-62.
As to `CCC(C#N)NCc1cccc(CNC(C#N)CC)c1` (centres undefined), the GI50 in the experiment with OVCAR-3, in the experiment on UACC-257, in the experiment on NCI/ADR-RES, in the experiment on HOP-92, in the experiment on NCI-H522 and in the experiment on SK-MEL-5 was > 100 µM (inactive) throughout. In addition, the GI50 with DU-145, in the experiment on A498, in the experiment with COLO 205, with HL-60, in the experiment with HCT-116 and in the experiment with MDA-MB-435 was > 100 µM (inactive) throughout. The GI50 in the experiment with OVCAR-4 was > 100 µM (inactive); in the experiment on OVCAR-5 it was 20 µM (inactive); with SF-539, > 100 µM (inactive); with K562, > 100 µM (inactive); in the experiment on EKVX, > 100 µM (inactive); in the experiment with NCI-H226 it was > 100 µM (inactive). For the same compound, in the experiment with A549, the GI50 was > 100 µM (inactive).
With `Cc1occc1/C(S)=N\c1ccc(Cl)c(COC(C)(C)C)c1`, the GI50 with OVCAR-3 is 15.1 µM (inactive); with UACC-257, 15.7 µM (inactive); in the experiment with NCI/ADR-RES it was 16.1 µM (inactive); with HOP-92, 15.7 µM (inactive); in the experiment with NCI-H522 it was 14.5 µM (inactive); in the experiment with SK-MEL-5, 16.2 µM (inactive). Further, the GI50 with DU-145 is 20.1 µM (inactive); in the experiment with A498 it was 17.8 µM (inactive); in the experiment on COLO 205 it was 15.7 µM (inactive); in the experiment with HL-60, 19.4 µM (inactive); in the experiment with HCT-116 it was 17.9 µM (inactive); with MDA-MB-435 it was 16.7 µM (inactive). Moreover, the GI50 in the experiment on OVCAR-4 is 15.3 µM (inactive); in the experiment on OVCAR-5, 19.4 µM (inactive); in the experiment on SF-539, 16.8 µM (inactive); in the experiment with EKVX, 16.3 µM (inactive); in the experiment with NCI-H226, 18.1 µM (inactive); with A549 it was 19.3 µM (inactive). Further, the GI50 in the experiment on HOP-62 is 18.3 µM (inactive).
For the compound `CC1=NC(C)(C)[N+]([O-])=C1`, the GI50 in the experiment with OVCAR-3, in the experiment with UACC-257, with NCI/ADR-RES, with HOP-92, in the experiment with NCI-H522 and in the experiment with SK-MEL-5 was > 10 µM (inactive) in each case. The GI50 with DU-145, in the experiment on A498, in the experiment on COLO 205, in the experiment on HL-60, in the experiment with HCT-116 and in the experiment with MDA-MB-435 was > 10 µM (inactive) in each case. Besides, the GI50 with OVCAR-5, in the experiment with SF-539, in the experiment with K562, in the experiment on EKVX, with NCI-H226 and in the experiment with A549 was > 10 µM (inactive) each time. The GI50 in the experiment on HOP-62 was > 10 µM (inactive).
With `C=C1C(=O)O[C@H]2C(=O)[C@H](C)CCC[C@@](C)(O)/C=C\C[C@@]3(C)O[C@@H]3C[C@@H]12`, the GI50 in the experiment on OVCAR-3 is 11.2 µM (inactive); in the experiment with UACC-257, 14.1 µM (inactive); in the experiment with NCI/ADR-RES, 39.4 µM (inactive); in the experiment on HOP-92, 10.3 µM (inactive); in the experiment with NCI-H522 it was 2.88 µM (inactive); in the experiment on SK-MEL-5, 15.2 µM (inactive). Further, the GI50 with DU-145 is 14.5 µM (inactive); in the experiment with A498, 16.1 µM (inactive); in the experiment on COLO 205 it was 16.2 µM (inactive); with HCT-116, 7.29 µM (inactive); in the experiment with MDA-MB-435, 18.5 µM (inactive); with OVCAR-5, 1.68 µM (inactive). In addition, the GI50 was 19.3 µM (inactive) in the experiment on SF-539, 82.2 µM (inactive) in the experiment with NCI-H226 and 19 µM (inactive) in the experiment with A549.
Regarding `O=C(O)c1cc2cc(OCc3ccccc3)ccc2[nH]1`, the GI50 in the experiment with OVCAR-3 is > 100 µM (inactive); in the experiment on UACC-257, 5.06 µM (inactive); in the experiment with NCI/ADR-RES, > 100 µM (inactive); with HOP-92 it was 23.6 µM (inactive); in the experiment with NCI-H522, > 100 µM (inactive); with SK-MEL-5, > 100 µM (inactive). Moreover, the GI50 in the experiment on DU-145 was > 100 µM (inactive); in the experiment on A498 it was 87.5 µM (inactive); with COLO 205, > 100 µM (inactive); in the experiment on HL-60 it was > 100 µM (inactive); in the experiment with HCT-116 it was > 100 µM (inactive); with MDA-MB-435, > 100 µM (inactive). In addition, the GI50 is > 100 µM (inactive) with OVCAR-5; > 100 µM (inactive) in the experiment with SF-539; > 100 µM (inactive) in the experiment on K562; > 100 µM (inactive) in the experiment on EKVX; 23.4 µM (inactive) with NCI-H226; > 100 µM (inactive) in the experiment on A549. Besides, the GI50 in the experiment on HOP-62 is > 100 µM (inactive).
On to `CCC1CCN/C(=N/S(=O)(=O)c2cc(C)c(Cl)cc2S)N1` (centres undefined), for which the GI50 is 42.9 µM (inactive) in the experiment on UACC-257; 38.7 µM (inactive) with NCI/ADR-RES; 50.9 µM (inactive) in the experiment on HOP-92; 27.7 µM (inactive) in the experiment with NCI-H522; > 100 µM (inactive) in the experiment with SK-MEL-5; 43.7 µM (inactive) in the experiment on DU-145. Besides, the GI50 with A498 is > 100 µM (inactive); with COLO 205, 39.2 µM (inactive); in the experiment on HL-60 it was 30.8 µM (inactive); with HCT-116, 24.7 µM (inactive); with MDA-MB-435, 22.9 µM (inactive); in the experiment with OVCAR-4, 24.3 µM (inactive). The GI50 in the experiment with OVCAR-5 was 22.3 µM (inactive); in the experiment on SF-539 it was 29.4 µM (inactive); in the experiment with K562, 32.4 µM (inactive); in the experiment with EKVX, 32.5 µM (inactive); in the experiment on NCI-H226, 26.7 µM (inactive); in the experiment on A549, > 100 µM (inactive). Besides, the GI50 in the experiment on HOP-62 was 24.3 µM (inactive).
